Calls of active or inactive are those of the source.
Experiments:
Vero [1] = assay: cells; format: functional; conditions: Chlorocebus sabaeus
[2] = molecular target: T1, Oxysterols receptor LXR-beta (Homo sapiens, UniProt P55055); format: functional, cell-based;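 also: agonist activity at LXR measured by a cell-based luminescence readout across a dose range, run as a counterscreen for daf-12 agonists; HEK293 cells with Gal4-LXR fusion and GAL4-driven luciferase reporter; potency for activation of Gal4-LXR reporter so compounds are agonists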
T1 sequence (P55055 whole entry): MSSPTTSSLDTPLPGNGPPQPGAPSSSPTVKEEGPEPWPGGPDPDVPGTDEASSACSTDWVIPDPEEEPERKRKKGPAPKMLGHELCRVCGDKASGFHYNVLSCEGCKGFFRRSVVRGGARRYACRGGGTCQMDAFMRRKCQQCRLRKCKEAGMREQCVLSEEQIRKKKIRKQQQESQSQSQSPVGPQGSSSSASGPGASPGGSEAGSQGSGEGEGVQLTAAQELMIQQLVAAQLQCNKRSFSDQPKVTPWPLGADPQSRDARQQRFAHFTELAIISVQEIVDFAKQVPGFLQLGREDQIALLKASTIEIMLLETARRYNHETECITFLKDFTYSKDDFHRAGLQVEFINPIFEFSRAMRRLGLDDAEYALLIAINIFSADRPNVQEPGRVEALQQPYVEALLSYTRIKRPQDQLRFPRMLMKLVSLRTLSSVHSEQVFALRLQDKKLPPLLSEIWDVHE

cells [3] = format: functional, cell-based
cells [4] = format: functional, cell-based; remark: listed apart in the source
[5] = HEK-293T cell viability reduction – luminescence, B-cell screen hits, cytotoxicity control for BCR NF-kB inhibitor project, dose response (AID 489021); format: functional, cell-based;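 also: HEK-293T cells carrying an NF-kB luciferase reporter; cells exposed to compound for about 14 hours before viability readout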
[6] = molecular target: T2, Carboxy-terminal domain RNA polymerase II polypeptide A small phosphatase 1 (Homo sapiens, UniProt Q9GZU7); assay: CTDSP1 inhibitors, concentration-response, biochemical, absorbance readout, ultra-high-throughput screen actives (AID 540297); format: functional
T2 sequence (Q9GZU7 whole entry): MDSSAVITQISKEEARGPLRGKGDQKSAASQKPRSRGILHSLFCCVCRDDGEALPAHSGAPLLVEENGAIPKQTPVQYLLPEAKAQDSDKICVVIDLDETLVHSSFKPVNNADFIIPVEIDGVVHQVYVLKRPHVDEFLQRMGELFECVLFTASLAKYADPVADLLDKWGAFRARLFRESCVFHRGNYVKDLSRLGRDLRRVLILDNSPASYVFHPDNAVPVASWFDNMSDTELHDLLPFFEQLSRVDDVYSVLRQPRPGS

[7] = molecular target: T3, High affinity choline transporter 1 (Homo sapiens, UniProt Q9GZV3); assay: human choline transporter blockers, potency – cell-based, 5-point CRC, membrane potential dye, dose response (AID 504840); format: functional
T3 sequence (Q9GZV3 whole entry): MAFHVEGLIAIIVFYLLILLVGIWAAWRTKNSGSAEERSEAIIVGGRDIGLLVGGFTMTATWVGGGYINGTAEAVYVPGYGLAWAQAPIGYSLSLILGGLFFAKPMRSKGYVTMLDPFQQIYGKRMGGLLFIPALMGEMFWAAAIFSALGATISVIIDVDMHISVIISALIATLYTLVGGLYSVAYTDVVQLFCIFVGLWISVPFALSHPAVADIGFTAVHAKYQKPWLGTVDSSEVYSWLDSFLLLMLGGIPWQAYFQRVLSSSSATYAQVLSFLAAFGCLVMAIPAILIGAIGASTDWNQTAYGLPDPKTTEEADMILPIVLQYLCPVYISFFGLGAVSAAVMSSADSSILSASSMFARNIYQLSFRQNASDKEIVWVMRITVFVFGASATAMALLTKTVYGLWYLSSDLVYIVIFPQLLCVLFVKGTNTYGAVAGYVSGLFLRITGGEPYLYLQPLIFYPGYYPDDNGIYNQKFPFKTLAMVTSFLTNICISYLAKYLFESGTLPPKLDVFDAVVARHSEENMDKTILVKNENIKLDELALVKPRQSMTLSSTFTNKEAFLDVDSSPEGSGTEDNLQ

[8] = molecular target: Glucose-6-phosphate 1-dehydrogenase (Homo sapiens, UniProt P11413); assay: inhibition of Homo sapiens G6PD, dose series – biochemical, fluorescence, selectivity assay for P. falciparum G6PD inhibitor project, dose response (AID 504792); format: functional
Genome polyprotein = Genome polyprotein (dengue virus type 2, UniProt P29990); assay: flavivirus cap methylation enzyme inhibition – biochemical, confirmation dose response, primary screen (AID 588689); format: functional
[9] = Trypanosoma cruzi growth suppression in host cells – NIH3T3 host cells, beta-gal luminescence, confirmation (AID 2044); format: functional, cell-based;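 also: intracellular parasites grown in NIH/3T3 mouse fibroblasts as host cells; luminescent beta-galactosidase reporter signal from transgenic T. cruzi replicating inside host cells; inhibitors lower the luminescence signal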
[10] = Luminescence Cell-Based Dose Retest to Confirm Inhibitors of Cancer Stem Cells. [Related pubchem assays (depositor defined):AID2717, AID2721]; format: functional; conditions: Homo sapiens
Nonstructural protein 1 = Nonstructural protein 1 (Influenza A virus, UniProt Q194T2); format: functional, Influenza A virus (A/California/07/2009(H1N1))
cells [11] = format: functional
BJ [12] = assay: BJ-TERT fibroblast viability loss – cell-based, RAS-independent, luminescence, dose response (AID 1933); format: functional; conditions: Homo sapiens
BJ [13] = assay: cells; format: functional, cell-based; conditions: Homo sapiens
BJ [14] = assay: BJ-TERT-LT-ST fibroblast viability loss – cell-based, RAS-independent, luminescence, dose response (AID 1935); format: functional; conditions: Homo sapiens;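 also: BJ fibroblasts immortalized with TERT plus LT and ST oncogenes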
[15] = DRD fibroblast viability loss – cell-based, non-viral oncogenic, luminescence, dose response (AID 1934); format: functional; conditions: Homo sapiens
CAAX prenyl protease 2 = molecular target: T4, CAAX prenyl protease 2 (Saccharomyces cerevisiae S288c, UniProt Q03530); format: biochemical
T4 sequence (Q03530 whole entry): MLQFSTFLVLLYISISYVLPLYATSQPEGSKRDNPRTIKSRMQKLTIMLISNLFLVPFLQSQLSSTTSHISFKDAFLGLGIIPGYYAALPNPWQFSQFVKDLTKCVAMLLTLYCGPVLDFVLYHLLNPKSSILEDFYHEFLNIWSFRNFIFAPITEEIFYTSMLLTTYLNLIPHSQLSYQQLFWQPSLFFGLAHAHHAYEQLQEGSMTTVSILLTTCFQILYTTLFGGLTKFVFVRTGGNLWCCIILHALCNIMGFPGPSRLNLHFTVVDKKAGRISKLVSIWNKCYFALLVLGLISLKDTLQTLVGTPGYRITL

[16] = molecular target: Heat shock protein HSP 90-alpha (Homo sapiens, UniProt P07900); format: functional, organism-based
HeLa = assay: ATP-based viability loss in HeLa cells – cell-based, CellTiter-Glo luminescence, cherry-pick samples, cytotoxicity control for MITF activator project, dose response (AID 540259); format: functional; conditions: Homo sapiens
Vero [17] = assay: viability of Vero cells under compound – cytotoxicity control for flavivirus capping enzyme inhibitors (AID 588742); format: functional; conditions: Chlorocebus sabaeus
[18] = blockers of HIV-1 envelope-mediated cell-cell fusion – cherry-pick, dose response (AID 652057); format: functional, cell-based
[19] = viability loss in CEM21 cells – cell-based, CellTiter-Glo luminescence, cherry-picked, cytotoxicity control for viral fusion inhibitor project, dose response (AID 652042); format: functional;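 also: potency for signal decrease meaning cytotoxicity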
H4 = assay: Luminescence Cell-Based Dose Response HTS to Identify Activators of 5'UTR Stem-Loop Driven Prion Protein mRNA Translation in H4 Neuroglioblastoma Cells. [Related pubchem assays: 1829 (Project Summary), 1814 (Primary HTS)]; format: functional; conditions: Homo sapiens
[20] = blockers of HIV-1 ZM109 envelope-driven cell-cell fusion – HeLa effector, CEM target cells, luciferase, cherry-pick, dose response (AID 652058); format: functional, cell-based;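 also: luciferase signal from HIV-1 Env mediated cell-cell fusion of effector and target cells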
[21] = HIV-1 AD8 envelope cell-cell fusion blockers – cherry-pick, dose response (AID 652062); format: functional, cell-based;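 also: luciferase signal from cell-cell fusion driven by HIV-1 clade B AD8 Env; potency is for inhibitors of fusion seen as a drop in luminescence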
[22] = molecular target: Induced myeloid leukemia cell differentiation protein Mcl-1 (Homo sapiens, UniProt Q07820); format: functional
[23] = molecular target: Glyceraldehyde-3-phosphate dehydrogenase (Homo sapiens, UniProt P04406)
Chain of Glyceraldehyde-3-phosphate dehydrogenase (P04406 whole entry): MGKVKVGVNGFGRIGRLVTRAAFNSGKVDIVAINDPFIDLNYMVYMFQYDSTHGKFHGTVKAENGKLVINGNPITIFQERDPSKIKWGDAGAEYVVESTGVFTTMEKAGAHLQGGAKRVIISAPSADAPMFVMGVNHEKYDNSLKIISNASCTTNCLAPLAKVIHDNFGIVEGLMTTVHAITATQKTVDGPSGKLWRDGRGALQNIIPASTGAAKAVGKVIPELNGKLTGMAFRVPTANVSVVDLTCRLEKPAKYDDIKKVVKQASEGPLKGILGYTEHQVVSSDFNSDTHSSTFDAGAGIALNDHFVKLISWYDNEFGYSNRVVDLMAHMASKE

Chain of Nonstructural protein 1 (Q194T2 whole entry): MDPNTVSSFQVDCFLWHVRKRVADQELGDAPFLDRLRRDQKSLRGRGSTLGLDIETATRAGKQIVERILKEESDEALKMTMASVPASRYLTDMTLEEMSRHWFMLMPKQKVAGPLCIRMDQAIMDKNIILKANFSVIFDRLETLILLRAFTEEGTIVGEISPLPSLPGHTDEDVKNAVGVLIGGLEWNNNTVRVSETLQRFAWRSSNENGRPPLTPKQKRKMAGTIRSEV
Chain of Genome polyprotein (P29990 2492-3391 limits assumed): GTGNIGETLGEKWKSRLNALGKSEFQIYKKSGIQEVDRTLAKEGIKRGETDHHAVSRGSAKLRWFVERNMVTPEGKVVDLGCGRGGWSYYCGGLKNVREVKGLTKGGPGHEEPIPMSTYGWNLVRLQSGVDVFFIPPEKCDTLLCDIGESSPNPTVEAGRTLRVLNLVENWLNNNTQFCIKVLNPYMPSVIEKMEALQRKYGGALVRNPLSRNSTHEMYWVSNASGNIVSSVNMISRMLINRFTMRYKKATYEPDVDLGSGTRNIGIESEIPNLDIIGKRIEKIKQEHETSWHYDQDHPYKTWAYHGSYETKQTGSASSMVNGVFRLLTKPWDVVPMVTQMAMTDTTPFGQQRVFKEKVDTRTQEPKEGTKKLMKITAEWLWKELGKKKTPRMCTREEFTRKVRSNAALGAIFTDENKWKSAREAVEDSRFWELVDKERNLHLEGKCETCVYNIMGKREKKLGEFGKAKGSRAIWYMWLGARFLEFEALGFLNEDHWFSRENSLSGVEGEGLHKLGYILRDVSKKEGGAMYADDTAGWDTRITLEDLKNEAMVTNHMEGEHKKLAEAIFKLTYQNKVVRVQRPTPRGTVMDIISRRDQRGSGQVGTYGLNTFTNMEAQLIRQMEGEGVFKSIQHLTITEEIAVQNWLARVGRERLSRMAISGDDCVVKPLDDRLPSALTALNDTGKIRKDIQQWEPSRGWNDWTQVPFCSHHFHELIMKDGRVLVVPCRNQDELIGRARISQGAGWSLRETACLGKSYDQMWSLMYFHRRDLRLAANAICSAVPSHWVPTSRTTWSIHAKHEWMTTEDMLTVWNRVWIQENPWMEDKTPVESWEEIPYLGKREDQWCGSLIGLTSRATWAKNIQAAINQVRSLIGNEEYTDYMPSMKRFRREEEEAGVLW
Chain of Glucose-6-phosphate 1-dehydrogenase (P11413 whole entry): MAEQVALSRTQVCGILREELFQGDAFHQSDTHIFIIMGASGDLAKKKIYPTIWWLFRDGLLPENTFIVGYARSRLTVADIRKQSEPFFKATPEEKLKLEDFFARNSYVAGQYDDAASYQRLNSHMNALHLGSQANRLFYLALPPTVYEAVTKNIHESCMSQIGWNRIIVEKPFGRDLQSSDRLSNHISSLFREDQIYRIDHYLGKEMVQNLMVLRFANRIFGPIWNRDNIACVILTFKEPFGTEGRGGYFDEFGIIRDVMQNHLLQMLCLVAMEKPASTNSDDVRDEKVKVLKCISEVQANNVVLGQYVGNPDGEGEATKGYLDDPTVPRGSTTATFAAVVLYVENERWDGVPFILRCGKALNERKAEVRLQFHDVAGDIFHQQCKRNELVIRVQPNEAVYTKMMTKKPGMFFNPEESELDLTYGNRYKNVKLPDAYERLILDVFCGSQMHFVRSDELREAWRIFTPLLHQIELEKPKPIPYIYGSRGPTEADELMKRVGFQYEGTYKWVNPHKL
Chain of Induced myeloid leukemia cell differentiation protein Mcl-1 (Q07820 whole entry): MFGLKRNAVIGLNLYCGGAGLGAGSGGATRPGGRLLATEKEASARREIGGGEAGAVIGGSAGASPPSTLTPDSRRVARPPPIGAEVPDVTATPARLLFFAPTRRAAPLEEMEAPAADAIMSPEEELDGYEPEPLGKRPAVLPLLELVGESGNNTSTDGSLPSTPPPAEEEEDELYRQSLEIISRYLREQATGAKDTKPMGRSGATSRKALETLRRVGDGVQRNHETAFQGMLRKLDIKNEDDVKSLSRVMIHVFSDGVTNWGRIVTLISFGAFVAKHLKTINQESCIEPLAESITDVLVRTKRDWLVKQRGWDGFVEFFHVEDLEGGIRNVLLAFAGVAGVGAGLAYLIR

SMILES: CCOC(=O)c1c(-c2ccc(C)cc2C)csc1NC(=O)CSc1nnnn1C
- CC50 (Vero [1]): 23.2 µM (active)

SMILES: CN(C)c1ccc(N=Nc2nccs2)cc1
- EC50 [2]: > 67.4 µM (inactive)

SMILES: O=C(C1=NN[C@@H]2C(=O)N(c3cccc(C(F)(F)F)c3)C(=O)[C@H]12)C(c1ccccc1)c1ccccc1
- EC50 (cells [3]): > 350 µM (not active)
- EC50 (cells [4]): > 350 µM (not active)

SMILES: Cc1ccc(-n2ncc3ccccc3c2=O)cc1Cl
- EC50 [2]: > 67.6 µM (inactive)

SMILES: CCOc1ccc(/C=C2\SC(=S)N(CCC(=O)Nc3ccc(C(=O)O)cc3)C2=O)cc1
- IC50 [5]: > 80 µM (inactive)
- IC50 [6]: 1.88 µM (active)

SMILES: CCCCc1ccc(NC(S)=NCC2CCCO2)cc1 (stereo not given)
- IC50 [7]: 15.8 µM (active)

SMILES: CCN(Cc1ccccc1)S(=O)(=O)c1ccc(C(=O)N(CCCN(C)C)c2nc3ccc(F)cc3s2)cc1
- CC50 (Vero [1]): > 25 µM (active)

SMILES: O=C(O)C(Cc1ccccc1)N1C(=O)C=CC1=O (stereo not given)
- IC50 [8]: > 80 µM (inactive)
- IC50 (Genome polyprotein): > 100 µM (active)

SMILES: CCn1c(=O)c2cc(C(=O)NC(C)C)sc2c2ccccc21
- IC50 [5]: 27.6 µM (inactive)

SMILES: CC(C)N1C(=O)/C(=C\c2nc3ccccc3c(=O)n2-c2ccccc2)c2ccccc21
- EC50 [9]: 1.36 µM (active)
- AC50 [10]: 8.71 µM (active)
- IC50 (Nonstructural protein 1): 50.5 µM (active)

SMILES: Nc1nnc(Sc2ncccc2[N+](=O)[O-])s1
- IC50 (cells [11]): 15.3 µM (active)

SMILES: COc1ccc(/C=N/n2cnc3c4cc(F)ccc4nc-3c2O)cc1CN1CCCC1
- EC50 (BJ [12]): 5.03 µM (inconclusive)
- EC50 (BJ [13]): 9.17 µM (inconclusive)
- EC50 (BJ [14]): 4.92 µM (active)
- EC50 [15]: 5.47 µM (inconclusive)

SMILES: CCOc1cc2nc(-c3ccc(OC)c(OC)c3)nc(N3CCOCC3)c2cc1OC
- IC50 [5]: > 80 µM (inactive)

SMILES: CN1CCN(C(=O)c2ccc(-c3cccs3)s2)CC1
- AC50 (CAAX prenyl protease 2): 32.5 µM (active)

SMILES: CC(C)N1CCN(Cc2ccc(OCc3ccccc3)cc2)CC1CCO (stereo not given)
- AC50 [10]: 3.36 µM (active)
- AC50 (CAAX prenyl protease 2): 72.9 µM (active)

SMILES: Cc1ccc(N=Nc2ccc(O)cc2)c(Br)c1
- AC50 [10]: 6.26 µM (active)
- AC50 [16]: 7.83 µM (active)
- AC50 (HeLa): 39.2 µM (active)
- EC50 [2]: > 67.5 µM (inactive)

SMILES: C#CCN(Cc1ccccc1)S(=O)(=O)C=C
- IC50 [5]: > 80 µM (inactive)

SMILES: Cc1ccc(-n2ncc3c2CCCC3NC(=O)c2ccccc2N2CCOCC2)cc1C (stereo not given)
- AC50 [16]: 0.984 µM (active)

SMILES: COc1ccc(-c2cc(C(F)(F)F)c3c(=O)n(-c4ccccc4)[nH]c3n2)cc1
- CC50 (Vero [17]): > 40 µM (active)
- IC50 (Genome polyprotein): 44.2 µM (active)

SMILES: Cc1ccc(S(=O)(=O)N2CCOCC2)cc1NC(=O)CNCc1ccccn1
- IC50 (Nonstructural protein 1): 18 µM (active)

SMILES: CC(C)C#Cc1ccc2c(c1)O[C@@H](CN(C)C(=O)C1CCCCC1)[C@H](C)CN([C@H](C)CO)S2(=O)=O
- AC50 [18]: 21.2 µM (active)
- AC50 [19]: 21.3 µM (active)

SMILES: Cc1ccccc1N=C(S)N(CCN(C)C)C(C)c1ccccn1 (stereo not given)
- IC50 (Nonstructural protein 1): 64.5 µM (active)

SMILES: Cc1cc(N/C=C/C(=O)c2ccc(Br)cc2)no1
- EC50 (cells [3]): > 350 µM (not active)
- EC50 (cells [4]): 59.3 µM (active)

SMILES: Fc1ccc(-c2nc3c(-c4ccccc4)cnn3cc2CCN2CCOCC2)cc1
- IC50 [7]: 13.2 µM (active)

SMILES: O=C(/C=C/c1ccccc1)NCCc1nc2ccccc2[nH]1
- EC50 (cells [3]): > 350 µM (not active)
- EC50 (cells [4]): > 350 µM (not active)

SMILES: Sc1nc2c[nH]c(S)nc-2n1
- IC50 [8]: > 80 µM (inactive)

SMILES: Cc1ccc(CSc2nnc(CCCCCNC(=O)OC(C)(C)C)o2)cc1
- EC50 (cells [3]): > 350 µM (not active)
- EC50 (cells [4]): > 350 µM (not active)

SMILES: O=C(CCCc1ccccc1)NC12CC3CC(CC(C3)C1)C2
- EC50 (H4): > 120 µM (not active)
- EC50 [2]: > 67.5 µM (inactive)

SMILES: OC(c1ccccn1)(c1ccccn1)c1ccccn1
- IC50 (Nonstructural protein 1): 10.9 µM (active)

SMILES: O=C(C[C@H]1CC[C@@H](NC(=O)c2ccccc2)[C@H](CO)O1)NCc1ccc(Oc2ccccc2)cc1
- AC50 [18]: 3.8 µM (active)
- AC50 [19]: 62.1 µM (active)
- AC50 [20]: 349 nM (active)
- AC50 [21]: 4.3 µM (active)

SMILES: Nc1ccc(C2=Nc3cccc4cccc(c34)N2)cc1
- IC50 [22]: 2.86 µM (active)

SMILES: CCCCCCN1C[C@@H](n2cc(COC(=O)c3ccccc3)nn2)[C@H](O)C[C@@H]1c1ccc(C)cc1
- CC50 (Vero [1]): > 25 µM (active)

SMILES: Cc1ccc(SCC(=O)Nc2nnc[nH]2)cc1
- IC50 [23]: > 10 µM (inconclusive)

SMILES: COc1cccc(NC(=O)c2cnc(SC)nc2)c1
- IC50 (cells [11]): 15.3 µM (active)

— ChEMBL document CHEMBL1201862, “PubChem BioAssay data set” (2004)
